Key:
[1] = Physical chemical characteristics: solubility in water and organic solvents
E.coli ATCC 35218 = assay: microbe, parasite or virus in culture; type: cell-based; conditions: Table 2.b)3; test concentrations given in μg/ml
Method: (§1) 1. Culture Medium: Tryprone Soy Broth (TBS) - Biogenetics
(§2) Microbic standard strains from American Type Culture Collection (ATCC) were used, chosen among aerobic Gram positive and negative as follows:
(§3) The broths culture of the different species are prepared growing the standard strain (kept in Tryptic Soy Agar (TSA) slent at 5° C.) in Tryptone Soy Broth (TSB) for 12 hours at 37° C. 10 ml are then taken up from each culture, centrifugated for 3 times at 3500 PM washing each time the sediment using 10 ml of sterile saline solution. The sediment is resuspended in the saline solution until obtainment of a turbidity corresponding to the Mc Farland standard solution (the suspension title must be […] UFC/ml).
(§4) The compounds, dissolved as stock solution, were added to test tubes containing 5 ml TBS in order to obtain the desired Final concentration 10000; 5000; 1000; 200; 40; 2; 0.4; 0.05 μg/ml (culture medium maximal dilution=1/10).
(§5) 50 μl of bacterial suspension are added to the tube containing the compounds to be tested and incubated at 37° C.: the densitometric determination is made in comparison with Mc Farland standard solution 24 and 48 hours later.
(§6) After the incubation time the suspensions ape gently agitated; 50 μl of each suspension are inoculated in tubes containing […] of TSB and incubated at 37° C.; the densitometric determination is made 48 hours later.
(§7) BMC is defined by comparison between the two densitometric evaluation.

[2] = tested on: standard bacterial strains; assay: Antibacterial activity, diffusion method in agar-germs, all strains (2.a); type: cell-based; conditions: versus hexadecyltrimethylammonium bromide and benzyldimethylhexadecylammonium chloride; in words
Method: (§8) In a Tryprone Soy Agar diffusion medium ATCC (American Type Culture Collection) standard bacterial strains are inoculated, preparing a final solution of 10^6 cfu/g (colony forming unities) of the following strains:
(§9) Every plate contains 20 ml of a medium where 2 equidistant wells having a standard diameter are Formed and in each of these wells […] of the above described bacterial solution are inoculated. 2 plates are prepared for every couple of compounds to be tested at different concentrations, and For every strain, and each of these plates is compared with a white (sterile demineralized water inoculum). After the inoculum, the plates are placed in the refrigerator to favour diffusion and temporaneously blocking bacterial growth.
(§10) The compounds hexadecyltrimethylammonium traumatate and benzyldimethylhexadecylammonium traumatare respectively versus hexadecyl trimethylammonium bromide and benzyldimethylhexadecylammonium chloride are solubilized in demineralized water to Form solutions at the concentrations: 0.1; 0.5; and 1%.
(§11) The antibacterial effect is evaluated by measuring bacterial diffusion halo around the well vs white (halo absence).

B.subtilis ATCC 6633 = assay: Evaluation of bacteriostatic minimal concentration (BMC); type: cell-based; conditions: Table 2.b)5; test concentrations given in μg/ml
Method: as §1, §2, §3, §4, §5, §6, §7

[3] = tested on: St.epidermidis ATCC 14990; assay: as above; type: cell-based; conditions: Table 2.b)4; test concentrations given in μg/ml
Method: as §1, §2, §3, §4, §5, §6, §7

Ps.aeruginosa ATCC 35422 = assay: as above; type: cell-based; conditions: Table 2.b)1; test concentrations given in μg/ml
Method: as §1, §2, §3, §4, §5, §6, §7

C.albicans ATCC 10231 = assay: as above; type: cell-based; conditions: Table 2.b)6; test concentrations given in μg/ml
Method: as §1, §2, §3, §4, §5, §6, §7

St.aureus ATCC 65380 = assay: as above; type: cell-based; conditions: Table 2.b)2; test concentrations given in μg/ml
Method: as §1, §2, §3, §4, §5, §6, §7

[4] = tested on: Pseudomonas Aeruginosa ATCC.35422; assay: Antibacterial activity, diffusion method in agar-germs (2.a); type: cell-based
Method: as §8, §9, §10, §11

E. Coli ATCC.35218 = assay: as above; type: cell-based
Method: as §8, §9, §10, §11

PS Maltophila ATCC.13637 = assay: as above; type: cell-based
Method: as §8, §9, §10, §11

[5] = tested on: Stafilococcus Aureus ATCC.65380; assay: as above; type: cell-based; set-up: unit not given here
Method: as §8, §9, §10, §11

[6] = tested on: Aspergillus Niger ATCC 16404; assay: as above; type: cell-based; set-up: unit not given here
Method: as §8, §9, §10, §11

[7] = tested on: Streptococcus Fecalis ATCC.291212; assay: as above; type: cell-based; set-up: unit not given here
Method: as §8, §9, §10, §11

[8] = tested on: Stafilococcus Epidermidis ATCC.14990; assay: as above; type: cell-based; set-up: unit not given here
Method: as §8, §9, §10, §11

[9] = tested on: Candida Albicans ATCC.10231; assay: as above; type: cell-based; set-up: unit not given here
Method: as §8, §9, §10, §11

PS Cepacia ATCC.25416 = assay: as above; type: cell-based; set-up: unit not given here
Method: as §8, §9, §10, §11

fibroblast cells L929 = assay: Cell growth of fibroblast L929 culture, crystal violet colorimetry (1.2); conditions: in words
Method: Mice fibroblast cells L929, clone derived from connective tissue, are suspended in Eagle's MEM with penicillin (100U/ml)--streptomycin (0.1 mg/ml), seeded in culture dishes (10000cells/dish) and cultured overnight. After 24 hours the culture medium was decantated and the tested compounds are added. The cellular density is measured after 4 (t0) and 24 (t1) hours of incubation at 37° C. in 5% CO2 air by colorimetry using crystal violet (exposure for 15 minutes, room temperature; absorbance 570 nm).
The cells number is measured at 4 (t0) and 24 (t1) hours from the seeding. The cell growth is evaluated at t1/t0 rate (%).

## benzylmethylhexadecylammonium trans-traumatate
[1]; in ethanol
  organic solvent solubility: > 20 mg/mL
[1]; water
  solubility in water: > 10 mg/mL
E.coli ATCC 35218
  MINIMAL BACTERIAL CONCENTRATION: 200.00
[2]
  antibacterial and bacteriostatic activity profile: antibacterial and bacteriostatic activity profile comparable to that of the comparison products
B.subtilis ATCC 6633
  MINIMAL BACTERIAL CONCENTRATION: 1,000.00
[3]
  MINIMAL BACTERIAL CONCENTRATION: 2.00
Ps.aeruginosa ATCC 35422
  MINIMAL BACTERIAL CONCENTRATION: 10,000.00
C.albicans ATCC 10231
  MINIMAL BACTERIAL CONCENTRATION: 2.00
St.aureus ATCC 65380
  MINIMAL BACTERIAL CONCENTRATION: 1,000.00
[4]; sol. 0.1%
  bacterial diffusion halo: n.h.
[4]; sol. 0.5%
  bacterial diffusion halo: 12
[4]; sol. 1%
  bacterial diffusion halo: 14
E. Coli ATCC.35218; sol. 0.1%
  bacterial diffusion halo: n.h.
E. Coli ATCC.35218; sol. 0.5%
  bacterial diffusion halo: n.h.
E. Coli ATCC.35218; sol. 1%
  bacterial diffusion halo: 13
PS Maltophila ATCC.13637; sol. 0.1%
  bacterial diffusion halo: n.h.
PS Maltophila ATCC.13637; sol. 0.5%
  bacterial diffusion halo: n.h.
PS Maltophila ATCC.13637; sol. 1%
  bacterial diffusion halo: 15
[5]; sol. 0.1%
  bacterial diffusion halo: 17
[5]; sol. 0.5%
  bacterial diffusion halo: 22
[5]; sol. 1%
  bacterial diffusion halo: 22
[6]; sol. 0.1%
  bacterial diffusion halo: 12
[6]; sol. 0.5%
  bacterial diffusion halo: 16
[6]; sol. 1%
  bacterial diffusion halo: 19
[7]; sol. 0.1%
  bacterial diffusion halo: 12
[7]; sol. 0.5%
  bacterial diffusion halo: 14
[7]; sol. 1%
  bacterial diffusion halo: 15
[8]; sol. 0.1%
  bacterial diffusion halo: 15
[8]; sol. 0.5%
  bacterial diffusion halo: 17
[8]; sol. 1%
  bacterial diffusion halo: 19
[9]; sol. 0.1%
  bacterial diffusion halo: 13
[9]; sol. 0.5%
  bacterial diffusion halo: 15
[9]; sol. 1%
  bacterial diffusion halo: 16
PS Cepacia ATCC.25416; sol. 0.1%
  bacterial diffusion halo: 12
PS Cepacia ATCC.25416; sol. 0.5%
  bacterial diffusion halo: 15
PS Cepacia ATCC.25416; sol. 1%
  bacterial diffusion halo: 15

## CC(C)(C)CC(C)(C)c1ccc(OCCOCC[N+](C)(C)Cc2ccccc2)cc1.CC(C)(C)CC(C)(C)c1ccc(OCCOCC[N+](C)(C)Cc2ccccc2)cc1.O=C([O-])/C=C/CCCCCCCCC(=O)[O-] [Benzethonium Traumatate, benzethonium trans-traumatate]
E.coli ATCC 35218
  MINIMAL BACTERIAL CONCENTRATION: 40.00
B.subtilis ATCC 6633
  MINIMAL BACTERIAL CONCENTRATION: 8.00
[3]
  MINIMAL BACTERIAL CONCENTRATION: 2.00
Ps.aeruginosa ATCC 35422
  MINIMAL BACTERIAL CONCENTRATION: 200.00
C.albicans ATCC 10231
  MINIMAL BACTERIAL CONCENTRATION: 2.00
St.aureus ATCC 65380
  MINIMAL BACTERIAL CONCENTRATION: 2.00
Fibroblast cells L929
  cell growth effect compared to traumatic acid: higher than traumatic acid effect
Fibroblast cells L929; benzethonium > gentamycin salt
  promotion of cell growth (proliferation): capable to promote cell growth (proliferation) according to dose-effect relationship

From patent publication US5567716A, “Trans and cis traumatic acid salts having cicatrizant activity associated to bacteriostatic, antiviral, antibiotic or antifungal activity” (priority 1992, dated 1996)
